Assay results taken from article PMC12216609, “Inhibitors of eIF1A-ribosome interaction unveil uORF-dependent regulation of translation initiation and antitumor and antiviral effects” (The EMBO Journal, 2025).
Values joined by “and” are separate entries in the source; they are usually repeats but may differ in a detail not shown here. Identical values can stand only once. Like-named read-outs stand apart in the source and are kept apart here.

Experiments:
[1] = test system: IRF7 5'UTR firefly luciferase reporter in HEK293T cells; conditions: for Reference vs IRF7 (Final data, Fig. 1E): 1/Result, relative to DMSO; for LONG (summary - All), normalized to DMSO / SHORT (summary - All), normalized to DMSO: individual replicates, outliers excluded, DMSO = 1; for SHORT (summary - All), normalized to DMSO / Short: Normalized to average DMSO: Short reporter; for average ( long vs short ratio): summary - All;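 for all read-outs here: luciferase signal corrected by a co-transfected GFP reporter for transfection efficiency, read after overnight compound exposure, with Long and Short reporters differing in 5'UTR length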
Protocol: For the effect on ribosomal scanning, we used two firefly luciferase reporter genes that differ in their 5'UTR length (Fig. 1C). […] Cells were transfected with these reporters along with a GFP reporter gene used to normalize transfection efficiency. After an overnight 1Ai or DMSO (vehicle control) exposure, luciferase and GFP expression were measured, and normalized activity was determined.
For the reference vs IRF7 5'UTR luciferase reporter assay, HEK239T cells in a 12-well plate were transfected with the previously described IRF7 5'UTR or reference firefly luciferase reported genes (Sehrawat et al, [2019]) (100 ng/well) together with GFP (20 ng/well) that served as an internal control by CaCl2 transfection. After 6 h, half of the growth medium was replaced with a medium containing the different compounds, reaching a final concentration of 20 µM. Twenty-four hours after transfection, transfection efficiency was evaluated using GFP fluorescence intensity (Cytation 5, ex/em: 470/525). Cells were harvested in 50 µL Reported lysis buffer (RLB) and put on a shaker for 10 min. From each well 5 µL were taken in duplicates and tested by luminometer.

[2] = target: T1, RPS10 (Homo sapiens, UniProt P46783); assay type: binding
T1 construct: made in house; host or cells: E. coli BL-21

[3] = target: T2, eIF1A-RPS10 interaction (Homo sapiens, UniProt P46783+P47813); assay: Split-Renilla luciferase eIF1A-RPS10 interaction screen, dose-response; assay type: biochemical
T2 construct: made in house; host or cells: E. coli BL21 (PRSFduet); unpurified lysate supernatant
T2 sequence (P47813 whole entry, one chain of several): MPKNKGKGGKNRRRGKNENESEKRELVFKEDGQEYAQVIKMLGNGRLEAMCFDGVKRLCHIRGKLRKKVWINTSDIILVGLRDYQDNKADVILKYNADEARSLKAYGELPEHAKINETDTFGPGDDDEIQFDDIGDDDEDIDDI
How it was run: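 eIF1A (C-terminus fused to N-terminal Renilla fragment, N-terminal tail left free) and RPS10 fused to the C-terminal Renilla fragment were expressed in BL21 E. coli (0.5 mM IPTG, overnight at 16 °C). Clarified lysates in TKE buffer served as the source of reconstituted luciferase activity; loss of signal indicated disrupted interaction.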

[4] = target: T3, eIF1A (Homo sapiens, UniProt P47813); assay type: binding; conditions: for fluorescence ratio, eIF1A: background-corrected, relative to DMSO or lowest 1Ai concentration, replicate columns; for WT eIF1A IC50: fluorescence binding
T3 construct: His-bdSUMO (cleaved yes); made in house; host or cells: E. coli BL-21
T3 sequence (P47813 whole entry): as the sequence (P47813 whole entry, one chain of several) above

[5] = target: NSP1 (Severe acute respiratory syndrome coronavirus 2, UniProt P0DTD1)
[6] = test system: cap-proximal AUG GFP reporter in HEK293T cells; assay type: cell-based; conditions: GFP WB densitometry; 20 µM overnight; dmso 0.965946;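 note: ratio of upstream to downstream AUG initiation products on GFP Western blot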
[7] = read-out: IC50 (line under RPS10 binding data)
[8] = summary table, fluorescence binding assay, read-out: IC50 concentration (µM), RPS10
[9] = Appendix Table S1, read-out: IC50 from the split RL screen
[10] = summary table, read-out: IC50 concentration (µM), IC50 screen
[11] = eIF1A, from the titration data, read-out: IC50 (eIF1A titration block)
[12] = summary table, fluorescence binding assay

Compound | Reference vs IRF7 (Final data, Fig. 1E) ([1]; 20 µM) | RPS10 fluorescence ratio to control ([2]; 1Ai conc. 0.25 uM) | RPS10 fluorescence ratio to control ([2]; 1Ai conc. 0.5 uM) | RPS10 fluorescence ratio to control ([2]; 1Ai conc. 2 uM) | RPS10 fluorescence ratio to control ([2]; 1Ai conc. 4 uM) | RPS10 fluorescence ratio to control ([2]; 1Ai conc. 8 uM) | RPS10 fluorescence ratio to control ([2]; 1Ai conc. 16 uM) | RPS10 fluorescence ratio to control ([2]; 1Ai conc. 32 uM) | RPS10 fluorescence ratio to control ([2]; 1Ai conc. 64 uM) | RPS10 fluorescence ratio to control ([2]; 1Ai conc. 256 uM) | IC50 [3, 10] [µM] | fluorescence ratio, eIF1A ([4]; 1Ai conc. 0.25 uM) | fluorescence ratio, eIF1A ([4]; 1Ai conc. 0.5 uM) | fluorescence ratio, eIF1A ([4]; 1Ai conc. 1 uM) | fluorescence ratio, eIF1A ([4]; 1Ai conc. 2 uM) | fluorescence ratio, eIF1A ([4]; 1Ai conc. 4 uM) | fluorescence ratio, eIF1A ([4]; 1Ai conc. 8 uM) | fluorescence ratio, eIF1A ([4]; 1Ai conc. 16 uM) | fluorescence ratio, eIF1A ([4]; 1Ai conc. 32 uM) | fluorescence ratio, eIF1A ([4]; 1Ai conc. 64 uM) | also measured
CCOC(=O)c1ccsc1NC(=O)CN1C(=O)NC(C)(c2cccc3ccccc23)C1=O (centres unmarked) [1Ai-1861] | 1.411 | 1 | 0.8226 | 0.7185 | 0.4957 | 0.1947 | 0.1506 | 0.08052 | 0.3768 | 0.398 | 15 | 1.039 and 0.974 | 1.136 and 0.9941 | 1.143 and 0.9966 | 1.167 and 0.9386 | 1.169 and 0.9347 | 1.065 and 0.8919 | 1.1254 and 0.8973 | 1.149 and 0.9563 | 1.304 and 0.9843 | LONG (summary - All), normalized to DMSO ([1]; Long reporter, 20 µM): 0.0542 and 0.33 and 0.67 and 0.24; SHORT (summary - All), normalized to DMSO ([1]; 20 µM): 0.28 and 0.35 and 0.52 and 0.68; average ( long vs short ratio) ([1]; 20 µM): 0.709; RPS10 fluorescence ratio to control ([2]; 1Ai conc. 1 uM): 0.9775; IC50 [2, 7]: 3.7 µM; IC50 ([2]; read-out: RPS10 IC50): 3.7 µM; IC50 [2, 8]: 3.7 µM; IC50 [3, 9]: 14 µM; fluorescence ratio, eIF1A ([4]; 1Ai conc. 256 uM): 1.359 and 0.9897; IC50 [4, 11]: 71 µM; WT eIF1A IC50 [4]: No binding; IC50 concentration (µM), WT eIF1A [4, 12]: No binding; GFP reporter ratio nsp1/gfp, avg [5]: 0.5997; GFP reporter ratio nsp1/gfp, rep 1 [5]: 0.5997; gfp signal, mean of duplicate wells [5]: 311; nsp1 signal, mean of duplicate wells [5]: 186.5; ratio (nsp1/gfp) [5]: 0.600; US/DS ratio, average [6]: 0.86
COc1cccc(Nc2nc(-c3ccc(NC(C)=O)cc3)c(C)s2)c1 [1Ai-1869] | 1.329 | 0.7198 | 0.6885 | 0.5996 | 0.5488 | 0.4668 | 0.3725 | 0.2785 | 0.234 | 0.2345 | 14 | 0.7968 and 0.7342 | 0.8838 and 0.7405 | 0.8128 and 0.72 | 1.007 and 0.8137 | 0.913 and 0.7844 | 0.7676 and 0.6709 | 0.6554 and 0.584 | 0.5701 and 0.4814 | 0.4848 and 0.4176 | LONG (summary - All), normalized to DMSO ([1]; Long reporter, 5 µM): 0.51 and 0.25 and 0.61; SHORT (summary - All), normalized to DMSO ([1]; 5 µM): 0.54 and 0.69 and 0.59; Short: Normalized to average DMSO ([1]; data section, GFP-corrected, 5 µM, per experiment, includes values excluded as outliers): 0.5397 and 0.69 and 0.5937; average ( long vs short ratio) ([1]; 5 µM): 0.752; RPS10 fluorescence ratio to control ([2]; 1Ai conc. 1 uM): 0.6476; IC50 [2, 7]: 7.7 µM; IC50 ([2]; read-out: RPS10 IC50): 7.7 µM; IC50 [2, 8]: 7.7 µM; IC50 [3, 9]: 18 µM; fluorescence ratio, eIF1A ([4]; 1Ai conc. 256 uM): 0.3469 and 0.3333; IC50 [4, 11]: 20.4 µM; IC50 ([4]; summary table, fluorescence binding assay, read-out: IC50 concentration (µM), WT eIF1A): 20.4 µM; GFP reporter ratio nsp1/gfp, avg [5]: 0.4109; GFP reporter ratio nsp1/gfp, rep 1 [5]: 0.4212; GFP reporter ratio nsp1/gfp, rep 2 [5]: 0.4006; ratio (nsp1/gfp) [5]: 0.421 and 0.401 and 0.735; US/DS ratio, average [6]: 1.144
O=C(CSc1nc(-c2ccccc2)cn1-c1ccccc1)NC(=O)Nc1ccccc1 [1Ai-2383] | 1.265 | 1.003 | 0.5095 | 0.4799 | 0.3805 | 0.08815 | 0.2868 | 0.02728 | 0.2465 | 0.3391 | 23 | 0.9677 and 0.9798 | 0.9803 and 0.9815 | 1.02 and 0.9558 | 1.009 and 0.948 | 0.993 and 0.9579 | 0.9438 and 0.997 | 1.039 and 1.06 | 1.096 and 1.111 | 1.232 and 1.231 | LONG (summary - All), normalized to DMSO ([1]; Long reporter, 20 µM): 0.91 and 0.57 and 0.60; SHORT (summary - All), normalized to DMSO ([1]; 20 µM): 0.93 and 0.86 and 0.76; Long: Normalized to average DMSO ([1]; data section, Long reporter, GFP-corrected, 20 µM, per experiment, includes values excluded as outliers): 0.9138 and 0.5713 and 0.6011 and 0.6048; Short: Normalized to average DMSO ([1]; data section, GFP-corrected, 20 µM, per experiment, includes values excluded as outliers): 0.9324 and 0.8573 and 0.5797 and 0.7642; average ( long vs short ratio) ([1]; 20 µM): 0.790; RPS10 fluorescence ratio to control ([2]; 1Ai conc. 1 uM): 0.4927; IC50 ([2]; fluorescence binding, read-out: RPS10 IC50): 0.7 µM; IC50 ([2]; source data Fig. 2B, read-out: IC50 (line under RPS10 binding data)): 0.66 µM; IC50 [2, 8]: 0.661 µM; fluorescence ratio, eIF1A ([4]; 1Ai conc. 256 uM): 1.523 and 1.464; WT eIF1A IC50 [4]: No binding; IC50 concentration (µM), WT eIF1A [4, 12]: No binding; GFP reporter ratio nsp1/gfp, avg [5]: 0.4187; GFP reporter ratio nsp1/gfp, rep 1 [5]: 0.4187; gfp signal, mean of duplicate wells [5]: 2499.5; nsp1 signal, mean of duplicate wells [5]: 1046.5; ratio (nsp1/gfp) [5]: 0.419; US/DS ratio, average [6]: 0.4898
COc1ccc2oc(C(=O)OC(C)C(=O)Nc3sccc3C(N)=O)c(C)c2c1 (centres unmarked) [1Ai-3044] | 0.527 | 1 | 1.015 | 1.108 | 1.108 | 1.07 | 0.983 | 0.9928 | 1.135 | 1.327 | 10 | 0.7896 and 0.9625 | 0.8401 and 0.9684 | 0.783 and 0.965 | 1.321 and 0.9132 | 1.411 and 0.9093 | 1.361 and 0.8279 | 1.171 and 0.7406 | 1.256 and 0.7959 | 1.351 and 0.8195 | LONG (summary - All), normalized to DMSO ([1]; Long reporter, 10 µM): 0.55 and 1.64 and 1.20 and 0.82 and 1.11; SHORT (summary - All), normalized to DMSO ([1]; 10 µM): 0.72 and 0.67 and 0.70 and 0.63; Long 5'UTR reporter luciferase activity, normalized to DMSO (=1), single replicates ([1]; compound at 10 µM, left data block (Long), source data of Fig 1C): 0.5511 and 1.639 and 1.204 and 0.8163 and 1.106; average ( long vs short ratio) ([1]; 10 µM): 1.568; RPS10 IC50 ([2]; fluorescence binding): No binding; IC50 concentration (µM), RPS10 [2, 12]: No binding; IC50 [3, 9]: 15 µM; fluorescence ratio, eIF1A ([4]; 1Ai conc. 256 uM): 1.419 and 0.8072; WT eIF1A IC50 [4]: No binding; IC50 concentration (µM), WT eIF1A [4, 12]: No binding; GFP reporter ratio nsp1/gfp, avg [5]: 0.4548; GFP reporter ratio nsp1/gfp, rep 1 [5]: 0.4548; gfp signal, mean of duplicate wells [5]: 2086.5; nsp1 signal, mean of duplicate wells [5]: 949; ratio (nsp1/gfp) [5]: 0.455; US/DS ratio, average [6]: 0.9145
